Patent US20230293526A1, “METHOD FOR TREATING CANCER WITH A REVERSE TRANSCRIPTASE INHIBITOR” (PrimeFour Therapeutics, Inc., priority 2020, published 2023)

What was measured:
human LINE-1 = assay: Human LINE-1 (L1) retrotransposition dual-luciferase reporter assay in HeLa cells; format: cell-based; details: Homo sapiens, HeLa, 72 h, read-out: Human LINE-1 IC50 (Human L1 activity inhibition)
Method in brief: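 HeLa cells transfected with dual-luciferase L1 plasmid pYX017 (100 ng/well), dosed immediately after with serially diluted compounds (0.2% DMSO final) in triplicate and incubated 72 h at 37 °C. Relative L1 activity = Firefly/Renilla ×10,000; IC50 from logistic non-linear regression.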

cancer cell lines = assay: Cancer cell proliferation activity of representative nucleosides, CellTiterGlo 72 h (Example 7, Tables 8 and 9); format: cell-based; details: 72 h
Method in brief: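 Cancer cell lines seeded and incubated at 37° C overnight, then exposed to nucleosides (final DMSO 0.1%) for 72 h at 37° C with 5% or 10% CO2. Viability read by CellTiterGlo luminescence and normalized to 0.1% DMSO (100%) and 10 μM staurosporine (0%) controls.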

`C#C[C@]1(CO)O[C@@H](n2cnc3c(=O)[nH]c(N)nc32)C[C@@H]1O` [compound 13] was tested, and the IC50 (human LINE-1) was 0.00051 µM, the IC50 (cancer cell lines; 72 h, 5637, bladder) was 2.27 µM and the IC50 (cancer cell lines; CLS439, bladder) was over 50 µM. The IC50 (cancer cell lines; HS729, muscle) was 1.51 µM, the IC50 (cancer cell lines; J82, bladder) was 1.97 µM and the IC50 (cancer cell lines; JAR, placenta) was over 50 µM. The IC50 (cancer cell lines; MT3, breast) was 0.37 µM, the IC50 (cancer cell lines; PC3, prostate) was 1.8 µM and the IC50 (cancer cell lines; RD, muscle) was over 50 µM. For the same compound, the IC50 (cancer cell lines; T24, bladder) was 4.54 µM, the IC50 (cancer cell lines; Homo sapiens, 22Rv1, 72 h, 22RV1, prostate) was 2.22 µM and the IC50 (cancer cell lines; Homo sapiens, 786-0, 72 h, 786O, kidney) was over 50 µM. For the same compound, the IC50 (cancer cell lines; Homo sapiens, A204, 72 h, A204, muscle) was 0.27 µM, the IC50 (cancer cell lines; Homo sapiens, A549, 72 h, A549, lung) was 2.06 µM and the IC50 (cancer cell lines; Homo sapiens, A673, 72 h, A673, bone) was over 50 µM. For the same compound, the IC50 (cancer cell lines; Homo sapiens, A2780, 72 h, A2780, ovary) was 15.6 µM, the IC50 (cancer cell lines; Homo sapiens, A-375, 72 h, A375, skin) was 2.35 µM and the IC50 (cancer cell lines; Homo sapiens, A-431, 72 h, A431, skin) was 3.03 µM. It also gave an IC50 (cancer cell lines; Homo sapiens, ACHN, kidney) of 1.44 µM, an IC50 (cancer cell lines; Homo sapiens, ASPC1, 72 h, ASPC1, pancreas) of 1.33 µM and an IC50 (cancer cell lines; Homo sapiens, BT-20, 72 h, BT20, breast) of over 50 µM. The IC50 (cancer cell lines; Homo sapiens, BXPC-3, 72 h, BXPC3, pancreas) was 1.43 µM, the IC50 (cancer cell lines; Homo sapiens, C-33-A, C33A, endometrial) was 2.03 µM and the IC50 (cancer cell lines; Homo sapiens, CAKI-1, 72 h, CAKI1, kidney) was 1.84 µM. It also gave an IC50 (cancer cell lines; Homo sapiens, COLO 205, 72 h, COLO205, colon) of 1.47 µM, an IC50 (cancer cell lines; Homo sapiens, COLO-678, 72 h, COLO678, colon) of 4.09 µM and an IC50 (cancer cell lines; Homo sapiens, Ca-Ski, CASKI, endometrial) of over 50 µM. For the same compound, the IC50 (cancer cell lines; Homo sapiens, Caco-2, 72 h, CACO2, colon) was over 50 µM, the IC50 (cancer cell lines; Homo sapiens, Calu-6, 72 h, CALU6, lung) was over 50 µM and the IC50 (cancer cell lines; Homo sapiens, DLD-1, 72 h, DLD1, colon) was over 50 µM. For the same compound, the IC50 (cancer cell lines; Homo sapiens, DU-145, 72 h, DU145, prostate) was 4.07 µM, the IC50 (cancer cell lines; Homo sapiens, EFO-21, 72 h, EFO21, ovary) was 4 µM and the IC50 (cancer cell lines; Homo sapiens, EJ-28, 72 h, EJ28, bladder) was 6.82 µM. For the same compound, the IC50 (cancer cell lines; Homo sapiens, Granta-519, 72 h, GRANTA-519, hematological) was 2.44 µM, the IC50 (cancer cell lines; Homo sapiens, HCT-15, 72 h, HCT15, colon) was over 50 µM and the IC50 (cancer cell lines; Homo sapiens, HCT-116, 72 h, HCT116, colon) was 3.37 µM. For the same compound, the IC50 (cancer cell lines; Homo sapiens, HEK293, 72 h, HEK293, kidney) was 7.69 µM, the IC50 (cancer cell lines; Homo sapiens, HL-60, 72 h, HL-60, hematological) was 2.06 µM and the IC50 (cancer cell lines; Homo sapiens, HT-29, 72 h, HT29, colon) was 2.28 µM. It also gave an IC50 (cancer cell lines; Homo sapiens, HT-1080, 72 h, HT1080, connective tissue) of 3.88 µM, an IC50 (cancer cell lines; Homo sapiens, HeLa, endometrial) of 1.2 µM and an IC50 (cancer cell lines; Homo sapiens, HepG2, 72 h, HEPG2, liver) of 1.24 µM. The IC50 (cancer cell lines; Homo sapiens, Hs-578T, HS578T, breast) was over 50 µM, the IC50 (cancer cell lines; Homo sapiens, IGROV-1, 72 h, IGROV1, ovary) was 2.76 µM and the IC50 (cancer cell lines; Homo sapiens, IMR-90, 72 h, IMR90, lung) was over 50 µM. It also gave an IC50 (cancer cell lines; Homo sapiens, JEG-3, 72 h, JEG3, placenta) of over 50 µM, an IC50 (cancer cell lines; Homo sapiens, JIMT-1, 72 h, JIMT1, breast) of 2.04 µM and an IC50 (cancer cell lines; Homo sapiens, K562, 72 h, K-562, hematological) of over 50 µM. For the same compound, the IC50 (cancer cell lines; Homo sapiens, Kasumi 1, 72 h, KASUMI-1, hematological) was 0.1 µM, the IC50 (cancer cell lines; Homo sapiens, L-363, 72 h, L-363, hematological) was over 50 µM and the IC50 (cancer cell lines; Homo sapiens, LoVo, colon) was 3.1 µM. The IC50 (cancer cell lines; Homo sapiens, MCF7, 72 h, MCF7, breast) was 5.95 µM, the IC50 (cancer cell lines; Homo sapiens, MDA-MB-231, 72 h, MDAMB231, breast) was 1.32 µM and the IC50 (cancer cell lines; Homo sapiens, MDA-MB-435, 72 h, MDAMB435, skin) was over 50 µM. For the same compound, the IC50 (cancer cell lines; Homo sapiens, MDA-MB-436, 72 h, MDAMB436, breast) was 1.5 µM, the IC50 (cancer cell lines; Homo sapiens, MDA-MB-468, 72 h, MDAMB468, breast) was over 50 µM and the IC50 (cancer cell lines; Homo sapiens, MG-63, 72 h, MG63, bone) was over 50 µM. It also gave an IC50 (cancer cell lines; Homo sapiens, MHH-ES-1, 72 h, MHHES1, bone) of over 50 µM, an IC50 (cancer cell lines; Homo sapiens, MIA PaCa-2, 72 h, MIAPACA2, pancreas) of 6.24 µM and an IC50 (cancer cell lines; Homo sapiens, MINO, hematological) of 0.46 µM. The IC50 (cancer cell lines; Homo sapiens, MV4-11, 72 h, MV4-11, hematological) was 1.02 µM, the IC50 (cancer cell lines; Homo sapiens, NCI-H23, 72 h, NCI-H23, lung) was 4.67 µM and the IC50 (cancer cell lines; Homo sapiens, NCI-H82, 72 h, NCIH82, lung) was 15.4 µM. For the same compound, the IC50 (cancer cell lines; Homo sapiens, NCI-H292, 72 h, NCIH292, lung) was 1.07 µM, the IC50 (cancer cell lines; Homo sapiens, NCI-H460, 72 h, NCIH460, ung) was 1.41 µM and the IC50 (cancer cell lines; Homo sapiens, OVCAR-3, 72 h, OVCAR3, ovary) was 0.76 µM. It also gave an IC50 (cancer cell lines; Homo sapiens, OVCAR-4, 72 h, OVCAR4, ovary) of over 50 µM, an IC50 (cancer cell lines; Homo sapiens, PANC-1, 72 h, PANC1, pancreas) of over 50 µM and an IC50 (cancer cell lines; Homo sapiens, PLC-PRF-5, 72 h, PLCPRF5, liver) of 2.1 µM. For the same compound, the IC50 (cancer cell lines; Homo sapiens, Panc1005, 72 h, PANC1005, pancreas) was 3.08 µM, the IC50 (cancer cell lines; Homo sapiens, Ramos, hematological) was 1.17 µM and the IC50 (cancer cell lines; Homo sapiens, SAOS-2, 72 h, SAOS2, bone) was 1.66 µM. For the same compound, the IC50 (cancer cell lines; Homo sapiens, SF-268, 72 h, SF268, brain) was over 50 µM, the IC50 (cancer cell lines; Homo sapiens, SF-295, 72 h, SF295, brain) was 7.16 µM and the IC50 (cancer cell lines; Homo sapiens, SK-BR-3, 72 h, SKBR3, breast) was 4.61 µM. It also gave an IC50 (cancer cell lines; Homo sapiens, SK-HEP1, 72 h, SKHEP1, liver) of 2.29 µM, an IC50 (cancer cell lines; Homo sapiens, SK-LMS-1, 72 h, SKLMS1, uterus) of 2.38 µM and an IC50 (cancer cell lines; Homo sapiens, SK-MEL-5, 72 h, SKMEL5, skin) of over 50 µM. For the same compound, the IC50 (cancer cell lines; Homo sapiens, SK-MEL-28, 72 h, SKMEL28, skin) was 6.06 µM, the IC50 (cancer cell lines; Homo sapiens, SK-N-AS, SKNAS, brain) was 2.44 µM and the IC50 (cancer cell lines; Homo sapiens, SK-N-SH, SKNSH, brain) was 2.29 µM. The IC50 (cancer cell lines; Homo sapiens, SK-OV-3, 72 h, SKOV3, ovary) was 2.02 µM, the IC50 (cancer cell lines; Homo sapiens, SNB-75, 72 h, SNB75, brain) was 12.8 µM and the IC50 (cancer cell lines; Homo sapiens, SU-DHL10, 72 h, SU-DHL-10, hematological) was 5.6 µM. It also gave an IC50 (cancer cell lines; Homo sapiens, SU-DHL-6, 72 h, SU-DHL-6, hematological) of 4.19 µM, an IC50 (cancer cell lines; Homo sapiens, SW-620, 72 h, SW620, colon) of 1.82 µM and an IC50 (cancer cell lines; Homo sapiens, TE-671, 72 h, TE671, muscle) of over 50 µM. It also gave an IC50 (cancer cell lines; Homo sapiens, THP-1, 72 h, THP-1, hematological) of 1.97 µM, an IC50 (cancer cell lines; Homo sapiens, U2OS, bone) of over 50 µM and an IC50 (cancer cell lines; Homo sapiens, U-87 MG, U87MG, brain) of 2.38 µM. For the same compound, the IC50 (cancer cell lines; Homo sapiens, UMUC3, 72 h, UMUC3, bladder) was over 50 µM, the IC50 (cancer cell lines; Homo sapiens, UO-31, 72 h, UO31, kidney) was 3.29 µM and the IC50 (cancer cell lines; Homo sapiens, WSU-NHL, hematological) was 2.77 µM. The IC50 (cancer cell lines; NCI-H358M, NCIH358M, lung) was 0.33 µM, the IC50 (cancer cell lines; PBMC, hematological) was 0.19 µM and the IC50 (cancer cell lines; RD-ES, RDES, bone) was 2.48 µM.
